Measured values reported in PubChem BioAssay (NCI).
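Five compound concentrations were applied to cells in 96-well plates for 48 hours; endpoints were derived by simple linear interpolation of the resulting dose-response curve. TGI is the concentration that stops growth completely.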

Tests used:
Experiment in all cases: DTP human tumour cell line panel, 48 h
KM12 colon = test system: KM12 colon
UO-31 renal = test system: UO-31 renal
UACC-62 melanoma = test system: UACC-62 melanoma
U251 CNS = test system: U251 CNS
HCT-116 colon = test system: HCT-116 colon
SNB-19 CNS = test system: SNB-19 CNS
K-562 leukemia = test system: K-562 leukemia
KM20L2 colon = test system: KM20L2 colon
SK-OV-3 ovarian = test system: SK-OV-3 ovarian
DMS 273 small cell lung = test system: DMS 273 small cell lung
SF-268 CNS = test system: SF-268 CNS
SF-539 CNS = test system: SF-539 CNS
SF-295 CNS = test system: SF-295 CNS
M14 melanoma = test system: M14 melanoma
RPMI-8226 leukemia = test system: RPMI-8226 leukemia
UACC-257 melanoma = test system: UACC-257 melanoma
NCI-H522 lung = test system: NCI-H522 lung
OVCAR-5 ovarian = test system: OVCAR-5 ovarian
HL-60(TB) leukemia = test system: HL-60(TB) leukemia
HOP-62 NSCLC = test system: HOP-62 NSCLC
M19-MEL melanoma = test system: M19-MEL melanoma
IGROV1 ovarian = test system: IGROV1 ovarian
786-0 renal = test system: 786-0 renal
OVCAR-3 ovarian = test system: OVCAR-3 ovarian
SK-MEL-28 melanoma = test system: SK-MEL-28 melanoma
EKVX NSCLC = test system: EKVX NSCLC
OVCAR-8 ovarian = test system: OVCAR-8 ovarian
HT29 colon = test system: HT29 colon
SNB-78 CNS = test system: SNB-78 CNS
SW-620 colon = test system: SW-620 colon
COLO 205 colon = test system: COLO 205 colon
DMS 114 small cell lung = test system: DMS 114 small cell lung
MOLT-4 leukemia = test system: MOLT-4 leukemia
SK-MEL-2 melanoma = test system: SK-MEL-2 melanoma
A549 NSCLC = test system: A549 NSCLC
HCT-15 colon = test system: HCT-15 colon
CAKI-1 renal = test system: CAKI-1 renal
NCI-H460 lung = test system: NCI-H460 lung
RXF 393 renal = test system: RXF 393 renal
LOX IMVI melanoma = test system: LOX IMVI melanoma
MALME-3M melanoma = test system: MALME-3M melanoma
SN12C renal = test system: SN12C renal
A498 renal = test system: A498 renal
OVCAR-4 ovarian = test system: OVCAR-4 ovarian
ACHN renal = test system: ACHN renal
SR leukemia = test system: SR leukemia
CCRF-CEM leukemia = test system: CCRF-CEM leukemia
NCI-H226 lung = test system: NCI-H226 lung
TK-10 renal = test system: TK-10 renal
HCC-2998 colon = test system: HCC-2998 colon
NCI-H23 lung = test system: NCI-H23 lung
LXFL 529 NSCLC = test system: LXFL 529 NSCLC
SK-MEL-5 melanoma = test system: SK-MEL-5 melanoma
SNB-75 CNS = test system: SNB-75 CNS
HOP-92 NSCLC = test system: HOP-92 NSCLC
DLD-1 colon = test system: DLD-1 colon

SMILES: CN(C)c1ccc(C=NC23CC4CC(CC(C4)C2)C3)cc1
- TGI (KM12 colon): > 100 µM
- TGI (UO-31 renal): > 100 µM
- TGI (UACC-62 melanoma): > 100 µM
- TGI (U251 CNS): > 100 µM
- TGI (HCT-116 colon): > 100 µM
- TGI (SNB-19 CNS): > 100 µM
- TGI (K-562 leukemia): > 100 µM
- TGI (KM20L2 colon): > 100 µM
- TGI (SK-OV-3 ovarian): > 100 µM
- TGI (DMS 273 small cell lung): > 100 µM
- TGI (SF-268 CNS): > 100 µM
- TGI (SF-539 CNS): > 100 µM
- TGI (SF-295 CNS): > 100 µM
- TGI (M14 melanoma): > 100 µM
- TGI (RPMI-8226 leukemia): > 100 µM
- TGI (UACC-257 melanoma): > 100 µM
- TGI (NCI-H522 lung): > 100 µM
- TGI (OVCAR-5 ovarian): > 100 µM
- TGI (HL-60(TB) leukemia): > 100 µM
- TGI (HOP-62 NSCLC): > 100 µM
- TGI (M19-MEL melanoma): > 100 µM
- TGI (IGROV1 ovarian): > 100 µM
- TGI (786-0 renal): > 100 µM
- TGI (OVCAR-3 ovarian): > 100 µM
- TGI (SK-MEL-28 melanoma): > 100 µM
- TGI (EKVX NSCLC): > 100 µM
- TGI (OVCAR-8 ovarian): > 100 µM
- TGI (HT29 colon): > 100 µM
- TGI (SNB-78 CNS): > 100 µM
- TGI (SW-620 colon): > 100 µM
- TGI (COLO 205 colon): > 100 µM
- TGI (DMS 114 small cell lung): > 100 µM
- TGI (MOLT-4 leukemia): > 100 µM
- TGI (SK-MEL-2 melanoma): > 100 µM
- TGI (A549 NSCLC): > 100 µM
- TGI (HCT-15 colon): > 100 µM
- TGI (CAKI-1 renal): > 100 µM
- TGI (NCI-H460 lung): > 100 µM
- TGI (RXF 393 renal): > 100 µM
- TGI (LOX IMVI melanoma): > 100 µM
- TGI (MALME-3M melanoma): > 100 µM
- TGI (SN12C renal): > 100 µM
- TGI (A498 renal): > 100 µM
- TGI (OVCAR-4 ovarian): > 100 µM
- TGI (ACHN renal): > 100 µM
- TGI (SR leukemia): > 100 µM
- TGI (CCRF-CEM leukemia): > 100 µM
- TGI (NCI-H226 lung): > 100 µM
- TGI (TK-10 renal): > 100 µM
- TGI (HCC-2998 colon): > 100 µM
- TGI (NCI-H23 lung): > 100 µM

SMILES: CC(SC(=S)Nc1cccc(F)c1)C(=O)O (configuration not stated)
- TGI (UO-31 renal): 74.5 µM
- TGI (LXFL 529 NSCLC): 69.1 µM
- TGI (UACC-62 melanoma): 36.4 µM
- TGI (U251 CNS): 84.9 µM
- TGI (HCT-116 colon): 37.6 µM
- TGI (SNB-19 CNS): 99.6 µM
- TGI (K-562 leukemia): 38.9 µM
- TGI (KM20L2 colon): 90.8 µM
- TGI (DMS 273 small cell lung): 24.5 µM
- TGI (SF-268 CNS): 32.6 µM
- TGI (SF-539 CNS): 38 µM
- TGI (SF-295 CNS): 52.7 µM
- TGI (M14 melanoma): 35 µM
- TGI (RPMI-8226 leukemia): 34.3 µM
- TGI (UACC-257 melanoma): 33.5 µM
- TGI (NCI-H522 lung): 34.9 µM
- TGI (OVCAR-5 ovarian): > 100 µM
- TGI (HL-60(TB) leukemia): 29.4 µM
- TGI (HOP-62 NSCLC): 59.6 µM
- TGI (IGROV1 ovarian): 11 µM
- TGI (786-0 renal): > 100 µM
- TGI (OVCAR-3 ovarian): > 100 µM
- TGI (SK-MEL-28 melanoma): 32.1 µM
- TGI (EKVX NSCLC): > 100 µM
- TGI (OVCAR-8 ovarian): 76 µM
- TGI (HT29 colon): > 100 µM
- TGI (SNB-78 CNS): > 100 µM
- TGI (SW-620 colon): > 100 µM
- TGI (DMS 114 small cell lung): 31.7 µM
- TGI (MOLT-4 leukemia): 46.5 µM
- TGI (SK-MEL-2 melanoma): 46.5 µM
- TGI (A549 NSCLC): > 100 µM
- TGI (HCT-15 colon): 83.7 µM
- TGI (CAKI-1 renal): > 100 µM
- TGI (NCI-H460 lung): 68 µM
- TGI (RXF 393 renal): 29.1 µM
- TGI (LOX IMVI melanoma): 32.4 µM
- TGI (SN12C renal): > 100 µM
- TGI (A498 renal): 77 µM
- TGI (OVCAR-4 ovarian): > 100 µM
- TGI (ACHN renal): > 100 µM
- TGI (SR leukemia): 30.8 µM
- TGI (CCRF-CEM leukemia): 55.3 µM
- TGI (NCI-H226 lung): 44.3 µM
- TGI (TK-10 renal): > 100 µM
- TGI (HCC-2998 colon): > 100 µM
- TGI (NCI-H23 lung): 52.3 µM

SMILES: COC(=O)c1nc(-c2ccc(Cl)c(Cl)c2)nc2ccc(Cl)cc12
- TGI (KM12 colon): > 100 µM
- TGI (UO-31 renal): > 100 µM
- TGI (LXFL 529 NSCLC): > 100 µM
- TGI (UACC-62 melanoma): > 100 µM
- TGI (U251 CNS): > 100 µM
- TGI (HCT-116 colon): > 100 µM
- TGI (SNB-19 CNS): > 100 µM
- TGI (KM20L2 colon): > 100 µM
- TGI (SK-OV-3 ovarian): 43.1 µM
- TGI (DMS 273 small cell lung): > 100 µM
- TGI (SK-MEL-5 melanoma): > 100 µM
- TGI (SF-268 CNS): > 100 µM
- TGI (SNB-75 CNS): 51.3 µM
- TGI (SF-539 CNS): 84.1 µM
- TGI (SF-295 CNS): > 100 µM
- TGI (RPMI-8226 leukemia): > 100 µM
- TGI (UACC-257 melanoma): > 100 µM
- TGI (OVCAR-5 ovarian): > 100 µM
- TGI (HL-60(TB) leukemia): > 100 µM
- TGI (M19-MEL melanoma): > 100 µM
- TGI (IGROV1 ovarian): > 100 µM
- TGI (786-0 renal): 73 µM
- TGI (SK-MEL-28 melanoma): > 100 µM
- TGI (EKVX NSCLC): > 100 µM
- TGI (OVCAR-8 ovarian): > 100 µM
- TGI (HT29 colon): > 100 µM
- TGI (HOP-92 NSCLC): 37.7 µM
- TGI (DLD-1 colon): > 100 µM
- TGI (SNB-78 CNS): > 100 µM
- TGI (SW-620 colon): > 100 µM
- TGI (COLO 205 colon): > 100 µM
- TGI (DMS 114 small cell lung): > 100 µM
- TGI (SK-MEL-2 melanoma): > 100 µM
- TGI (A549 NSCLC): > 100 µM
- TGI (NCI-H460 lung): > 100 µM
- TGI (RXF 393 renal): 63.5 µM
- TGI (MALME-3M melanoma): > 100 µM
- TGI (SN12C renal): > 100 µM
- TGI (A498 renal): > 100 µM
- TGI (ACHN renal): > 100 µM
- TGI (SR leukemia): > 100 µM
- TGI (TK-10 renal): > 100 µM
- TGI (HCC-2998 colon): > 100 µM
- TGI (NCI-H23 lung): > 100 µM
